From US20040115822A1, “Methods of measuring the dissolution rate of an analyte in a non-aqueous liquid composition” (priority 2002, published 2004)

Assay: Solubility of CCFA as a function of pH
Assay type: physicochemical
Conditions: below pH 5
Excerpt: In this example, CCFA was employed as the analyte. The solubility of CCFA varies as a function of pH.

Structure (SMILES): CO/N=C(\C(=O)N[C@@H]1C(=O)N2C(C(=O)O)=C(CSC(=O)c3ccco3)CS[C@H]12)c1csc(N)n1 [CCFA, ceftiofur crystalline free acid]
- solubility of CCFA: relatively insoluble
